{"source": "patent US11667949B2", "about": "“Reporter construct and biosensor for interferon second messenger 2-5A” (The Trustees of Princeton University, priority 2018, dated 2023)", "key": {"A549 cells [1]": {"system": "A549 cells", "experiment": "Nascent protein synthesis by puromycin pulse labeling", "assay_type": "cell-based, human", "description": "Ribopuromycilation and ^35S labeling to monitor nascent translation: To generate puromycin-tagged nascent peptides, human cells were treated with 0.1-1 μg/mL of poly-IC for times specified on the figures, after which the growth media was supplemented with 10 μg/mL puromycin (Invitrogen). Puromycin pulse lasted for 5 min. Cells were trypsinized and harvested in NuPAGE LDS sample buffer for western blot analyses. Proteins were separated by 10% BisTris PAGE (NuPAGE), and transferred on PVDF membranes (Life Technologies). The membrane was stained with Ponceau to normalize for sample loading, then washed and blocked with 5% non-fat dry milk in TBST buffer. The membranes were probed with 1:1000 mouse anti-puromycin antibody (EMD Millipore) that binds to de novo synthesized proteins, followed by horseradish peroxidase-conjugated goat anti-mouse secondary antibody (1:10,000, Jackson ImmunoResearch). Metabolic labeling with ^35S was conducted using the following procedure. After cell treatment with poly-IC, media was changed to methionine-free RPMI+10% FBS supplemented with 11 μCi EASY TAG™ EXPRESS35S Protein Labeling Mix (Perkin Elmer). Cellular proteins were resolved by 10% BisTris PAGE (NuPAGE) and analyzed by phosphorimaging."}, "RNase L": {"target": "T1, RNase L (Homo sapiens, UniProt Q05823)", "T1 sequence (Q05823 1-741)": "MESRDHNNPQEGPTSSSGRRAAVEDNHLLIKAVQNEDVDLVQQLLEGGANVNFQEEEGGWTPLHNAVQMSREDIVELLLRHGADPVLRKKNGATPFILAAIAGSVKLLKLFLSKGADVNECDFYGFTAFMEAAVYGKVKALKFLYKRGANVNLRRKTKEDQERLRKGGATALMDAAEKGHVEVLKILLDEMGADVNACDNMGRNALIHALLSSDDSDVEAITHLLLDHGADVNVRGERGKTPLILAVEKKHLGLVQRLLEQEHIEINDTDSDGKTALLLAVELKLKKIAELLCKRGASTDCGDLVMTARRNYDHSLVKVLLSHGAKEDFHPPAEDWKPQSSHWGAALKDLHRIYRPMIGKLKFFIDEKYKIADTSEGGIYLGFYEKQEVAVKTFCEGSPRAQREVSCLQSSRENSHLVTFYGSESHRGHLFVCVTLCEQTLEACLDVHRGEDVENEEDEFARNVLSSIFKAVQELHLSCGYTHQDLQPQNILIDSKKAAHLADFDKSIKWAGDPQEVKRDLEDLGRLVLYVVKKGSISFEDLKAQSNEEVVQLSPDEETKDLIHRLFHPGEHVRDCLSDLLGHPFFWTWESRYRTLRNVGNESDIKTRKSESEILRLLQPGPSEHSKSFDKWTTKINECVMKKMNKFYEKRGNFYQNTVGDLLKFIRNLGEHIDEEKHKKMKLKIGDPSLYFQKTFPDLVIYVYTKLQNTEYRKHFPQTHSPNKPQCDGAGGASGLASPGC", "details": "cited from earlier work"}, "A549 cells [2]": {"system": "A549 cells", "experiment": "Live cell 2-5A measurements in A549 cells stably expressing FLAG-V6 biosensor", "assay_type": "cell-based, human", "details": "pre-treatment before poly-IC", "quoted_text": "Live cell 2-5A measurements in stable cell lines expressing V6 or V6-Y312A reporters: A549 or HeLa cells stably expressing V6 or V6-Y312A control reporters were seeded at a density of 1·10^4 /well on TC-treated, clear flat bottom white 96-well plates. Before transfection with poly-IC, cells were pre-treated with 100 μM D-luciferin ethyl ester (1% DMSO) (f/c) (Marker Gene Technologies). After one hour of substrate pre-treatment, a poly-IC/lipofectamine complex (1 μg/mL Poly-IC+0.5 μL Lipofectamine 2000 in a final volume of 100 μL) was added to the cells along with a second addition of 100 μM D-luciferin and HEPES (pH 7.5; 20 mM f/c). Dilutions of poly-IC were made by diluting the poly-IC/lipofectamine complexes. Luminescence measurements were taken in repeat-mode using plate reader at time intervals shown on the figures. After three hours, fresh D-luciferin ethyl ester (100 μM) was re-supplied at every hour to ensure excess reporter substrate. Luminescence acquisition time was one minute per well. For IFN-β pre-treatment, a dose of 1000 U/mL (f/c) was used 24 hours before poly-IC treatment."}, "A549 cells [3]": {"system": "A549 cells", "experiment": "Secreted IFN detection by qPCR in conditioned media", "assay_type": "cell-based, human", "description": "qRT-PCR analysis: Cells were harvested in 350 μL RLT buffer (Qiagen) and RNA was purified according to the RNeasy protocol (Qiagen). cDNA was prepared using oligo-dT and a High Capacity RNA to cDNA kit (Applied Biosystems). qPCR was performed using the Power SYBR green PCR mix in a 96 well format on StepOnePlus qPCR instrument (Life Technologies). qPCR primers used in this work were from Integrated DNA Technologies and are available via the manufacturer if not specifically recited in the Table below.\nSecreted IFN detection by qPCR in conditioned media: A549 WT and RNase L knock out (KO) cells in 12-well plates were transfected with 1 μg/mL poly-IC and lipofectamine 2000 for 0.5, 2 or 6 hours. At the end of the time course, cells were washed four times with 1 mL of growth medium (RPMI+10% FBS) to remove residual poly IC. After the washes, fresh 1 mL medium was added and the cells were kept in fresh media for one hour to allow for protein secretion. Treatments of naive cells with conditioned media were done in a separate 12-well plate and using cells seeded 1 day before the analysis. Naïve cell media was replaced with 1 mL of the conditioned medium from above. Cells were grown in the conditioned media for 16 hours and harvested in 300 μL RLT (Qiagen). For pulse-chase experiments in FIG. 9C, 10 μM anisomycin was added 3 hours after poly-IC addition. Anisomycin level was additionally maintained during the last hour allocated for IFN secretion into fresh media."}, "HeLa cells [4]": {"system": "HeLa cells", "experiment": "Reporter assay in live cells transfected with V6 or Y312A V6 constructs", "assay_type": "cell-based, human", "description": "Reporter assay in live cells: NLS and NES tag sequences cloned in the reporter immediately following the FLAG tag were […] (SEQ ID NO: 4) and […] (SEQ ID NO: 5), respectively. […] These 96 well plates were clear bottom and white for optimum luminescence readings. […] Luminescence acquisition time: 1 minute/well."}, "HeLa cells [5]": {"system": "HeLa cells", "details": "poly IC 6 hours, <3 kDa flow-through, V6 reporter in vitro", "quoted_text": "In vitro Luminescence assays: The luminescence reactions contained 20 mM Hepes (pH7.4), 100 mM NaCl, 5 mM MgCl2, 5% (vol/vol) glycerol, 1 mM DTT, 3 mM ATP, 250 uM Coenzyme A hydrate (Sigma Aldrich). After adding specified concentrations of reporter protein and 2-5A (p2-5A3, pA3), D-luciferin, Potassium salt (Gold Biotechnology) was added at a final concentration of 400 uM. The reactions were allowed to stabilize for 2 minutes and immediately after luminescence measurements were taken on a plate reader (Berthold Technologies). Acquisition time for the reaction was set to be 10 seconds.\n2-5A extraction: HeLa cells treated for 6 hours with 1 ug/ml polyIC were lysed with RIPA (Thermo Fisher Scientific) buffer along with 0.5 mM PMSF protease inhibitor. The lysate was spun down at 12000 g for 10 minutes at 4° C. The supernatant was passed through a 3 KDa centrifugal filter to collect small nucleic acids. An equivalent amount of RNA from mock or polyIC treated sample was added to the luminescence assay."}, "HeLa cells [6]": {"system": "HeLa cells", "details": "stable monoclonal HeLa reporter cells", "quoted_text": "In an additional experiment, HeLa cells were stably transduced with a lentiviral construct containing the reporter. A monoclonal population of reporter expressing cells was then selected by limiting serial dilution. For reporter assay, these monoclonal cells were seeded at a cell density of 2×10^5 cells per well on 96 well plates. After the cells adhered to the plates (in approximately 6 hours), the cells were pre-treated with 100 uM D-luciferin ethyl ester (1% DMSO) (f/c). After one hour of substrate pre-treatment, poly IC-Lipofectamine complexes were added to the cells along with a second addition of 100 uM D-luciferin substrate. Luminescence measurements were taken on Repeated mode in the plate reader: every 15 minutes for the course of three hours. Luminescence acquisition time: 1 minute/well."}}, "note": "Like-named read-outs stand apart in the source and are kept apart here. Numbered stars: 1 amine (or outer) side, 2 acyl side, 3 side chain; on linkers, the order of the positions; unused ones are H or OH. Bridge positions count the residues as written; N and C are the ends. Square brackets hold non-standard residues; d marks the D form. Peptide text beside a SMILES is read from it. I, II: the chains in the order shown. Actinocin(9to1) = Cc1c2oc3c(C)ccc(C(=O)[*:1])c3nc-2c(C(=O)[*:2])c(N)c1=O; NMeV = CN[C@H](C(=O)O)C(C)C; Sar = CNCC(=O)O"}
{"molecule": "2′-5′-linked oligoadenylates [2-5A]", "values": [{"measurement": "attenuation of basal cell-wide translation", "setting": "A549 cells [1]; 2-5A activated RNase L", "result": "more than 1,000 fold"}, {"measurement": "affinity for latent RNase L", "setting": "RNase L", "result": "sub-nanomolar"}]}
{"molecule": "Cc1c2oc3c(C)ccc(C(=O)N[C@@H]4C(=O)N[C@H](C(C)C)C(=O)N5CCC[C@H]5C(=O)N(C)CC(=O)N(C)[C@@H](C(C)C)C(=O)O[C@@H]4C)c3nc-2c(C(=O)N[C@@H]2C(=O)N[C@H](C(C)C)C(=O)N3CCC[C@H]3C(=O)N(C)CC(=O)N(C)[C@@H](C(C)C)C(=O)O[C@@H]2C)c(N)c1=O", "note": "[Actinomycin D] (I: T[dV]P[Sar][NMeV] / II: T[dV]P[Sar][NMeV]; ester I:1-I:C, II:1-II:C; linker I:N-II:N via Actinocin(9to1))", "values": [{"measurement": "OAS/RNase L activation after pre-treatment with transcription inhibitor", "setting": "A549 cells [2]", "result": "not inhibited"}]}
{"molecule": "COc1ccc(C[C@H]2NC[C@H](O)[C@H]2OC(C)=O)cc1", "note": "[anisomycin]", "values": [{"measurement": "IFN production (IFN activity in the media)", "setting": "A549 cells [3]; 10 μM anisomycin added 3 hours after poly-IC, before the IFN response", "result": "blocked IFN production"}, {"measurement": "effect on ISG mRNAs", "setting": "A549 cells [3]; naïve cells, control experiment", "result": "mild stimulatory effect"}]}
{"molecule": "poly-Inosine/poly-Cytidine [poly IC]", "values": [{"measurement": "2-5A build-up, fold, poly IC treated vs untreated cells", "setting": "HeLa cells [4]; 30 minutes", "result": 2.4, "unit": "fold"}, {"measurement": "maximum fold change of reporter", "setting": "HeLa cells [4]; 3 hours post poly IC treatment", "result": 30, "unit": "fold"}, {"measurement": "ISG induction by conditioned media", "setting": "A549 cells [3]; media of poly I:C-treated WT and RNase L−/− cells, time points beyond translational arrest", "result": "two orders of magnitude"}, {"measurement": "global translation", "setting": "A549 cells [1]; WT A549 cells, before ISG induction", "result": "halted global translation"}, {"measurement": "stimulation of the reporter by nucleic acids from poly IC treated vs mock treated cells", "setting": "HeLa cells [5]", "result": "roughly 8 fold"}, {"measurement": "2-5A build-up, fold change with poly IC vs without poly IC", "setting": "HeLa cells [6]; 30 mins", "result": 3.7, "unit": "fold"}, {"measurement": "maximum fold change of reporter", "setting": "HeLa cells [6]; 3.5 hours after poly IC treatment", "result": 28, "unit": "fold"}]}
